According to patent US20160009693A1, “HERBICIDAL COMPOUNDS” (SYNGENTA LIMITED, priority 2013, published 2016):

How the values were obtained:
Format in all cases: in vivo
Conditions in all cases: evaluated after 13 days
[1] = test system: Alopecurus myosuroides (ALOMY); assay: Herbicidal glasshouse test, pre-emergence, ALOMY
Setaria faberi (SETFA) [2] = assay: Herbicidal glasshouse test, pre-emergence, SETFA
[3] = test system: Echinochloa crus-galli (ECHCG); assay: Herbicidal glasshouse test, pre-emergence, ECHCG
Procedure, shortened: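 In this pre-emergence glasshouse test, ECHCG seeds sown in pots of standard soil were sprayed one day after sowing with the test material in acetone/water (50:50) containing 0.5% Tween 20. Plants were kept at 24/16° C., 14 hours light, 65% humidity, and watered twice daily. Percentage damage was rated after 13 days on a 1–5 scale.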

Solanum nigrum (SOLNI) [4] = assay: Herbicidal glasshouse test, pre-emergence, SOLNI
Procedure, shortened: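 This pre-emergence glasshouse herbicide test used Solanum nigrum sown in standard soil. One day after sowing, pots were sprayed with the compound in acetone/water (50:50) with 0.5% Tween 20. They were then grown at 24/16° C., with 14 hours light and 65% humidity, and watered twice daily. Percentage damage was scored after 13 days on a five point scale, where 5=80-100% and 1=0-19%.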

[5] = test system: Amaranthus retoflexus (AMARE); assay: Herbicidal glasshouse test, pre-emergence, AMARE
Procedure, shortened: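 This pre-emergence glasshouse herbicide test used Amaranthus retoflexus sown in standard soil. After one day of cultivation, an aqueous spray made from the technical ingredient in 50:50 acetone/water with 0.5% Tween 20 was applied. Pots stayed at 24/16° C., 14 hours light, 65% humidity, with twice-daily watering. Damage was rated on a five point scale (1=0-19% up to 5=80-100%).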

[6] = test system: Ipomoea hederacea (IPOHE); assay: Herbicidal glasshouse test, pre-emergence, IPOHE
[7] = test system: Alopecurus myosuroides (ALOMY); assay: Herbicidal glasshouse test, post-emergence, ALOMY
Setaria faberi (SETFA) [8] = assay: Herbicidal glasshouse test, post-emergence, SETFA
Procedure, shortened: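 This post-emergence glasshouse herbicide test used potted Setaria faberi. Plants were cultivated for 8 days under controlled conditions (24/16° C. day/night, 14 hours light, 65% humidity) and then treated with an aqueous spray made from an acetone/water (50:50) solution containing 0.5% Tween 20. After 13 days of further growth with twice-daily watering, damage was rated on a five point scale (5=80-100%; 1=0-19%).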

[9] = test system: Echinochloa crus-galli (ECHCG); assay: Herbicidal glasshouse test, post-emergence, ECHCG
Procedure, shortened: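 In this post-emergence glasshouse test, barnyard grass (ECHCG) was cultivated for 8 days under controlled conditions (24/16° C. day/night, 14 hours light, 65% humidity). It was then sprayed with an aqueous solution of the technical compound in acetone / water (50:50) with 0.5% Tween 20. Plants were kept under the same conditions and watered twice daily. After 13 days, percentage damage was rated on a five point scale (5=80-100%; 1=0-19%).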

Solanum nigrum (SOLNI) [10] = assay: Herbicidal glasshouse test, post-emergence, SOLNI
[11] = test system: Amaranthus retoflexus (AMARE); assay: Herbicidal glasshouse test, post-emergence, AMARE
Procedure, shortened: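 This post-emergence glasshouse test used AMARE plants raised in standard soil for 8 days under controlled conditions (24/16° C. day/night, 14 hours light, 65% humidity). Foliage was sprayed with formulated compound in acetone/water (50:50) containing 0.5% Tween 20. Plants were then watered twice daily, and after 13 days percentage damage was rated on a five point scale.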

[12] = test system: Ipomoea hederacea (IPOHE); assay: Herbicidal glasshouse test, post-emergence, IPOHE

| SMILES | PRE Application ALOMY, percentage damage (five point scale) ([1]; applied at 1000 g/h) | PRE Application SETFA, percentage damage (five point scale) (Setaria faberi (SETFA) [2]; applied at 1000 g/h) | PRE Application ECHCG, percentage damage (five point scale) ([3]; applied at 1000 g/h) | PRE Application SOLNI, percentage damage (five point scale) (Solanum nigrum (SOLNI) [4]; applied at 1000 g/h) | PRE Application AMARE, percentage damage (five point scale) ([5]; applied at 1000 g/h) | PRE Application IPOHE, percentage damage (five point scale) ([6]; applied at 1000 g/h) | POST Application ALOMY, percentage damage (five point scale) ([7]; applied at 1000 g/h) | POST Application SETFA, percentage damage (five point scale) (Setaria faberi (SETFA) [8]; applied at 1000 g/h) | POST Application ECHCG, percentage damage (five point scale) ([9]; applied at 1000 g/h) | POST Application SOLNI, percentage damage (five point scale) (Solanum nigrum (SOLNI) [10]; applied at 1000 g/h) | POST Application AMARE, percentage damage (five point scale) ([11]; applied at 1000 g/h) | POST Application IPOHE, percentage damage (five point scale) ([12]; applied at 1000 g/h) | other results |
| --- | --- | --- | --- | --- | --- | --- | --- | --- | --- | --- | --- | --- | --- |
| C#CCn1c(=O)c(C(=O)Nc2nnnn2C)nn(C)c1=O [Compound 1.089] | 5 (5=80-100%) | 5 (5=80-100%) | 5 (5=80-100%) | 5 (5=80-100%) | 5 (5=80-100%) | 5 (5=80-100%) | 5 (5=80-100%) | 5 (5=80-100%) | 5 (5=80-100%) | 5 (5=80-100%) | 5 (5=80-100%) | 5 (5=80-100%) |  |
| Cn1nnnc1NC(=O)c1nn(C)c(=O)n(CCCC(F)(F)F)c1=O [Compound 1.090] | 5 (5=80-100%) | 5 (5=80-100%) | 5 (5=80-100%) | 5 (5=80-100%) | 5 (5=80-100%) | 5 (5=80-100%) | 5 (5=80-100%) | 5 (5=80-100%) | 5 (5=80-100%) | 5 (5=80-100%) | 5 (5=80-100%) | 5 (5=80-100%) |  |
| C=C(C)Cn1c(=O)c(C(=O)Nc2nnnn2C)nn(C)c1=O [Compound 1.091] |  |  |  |  |  |  |  |  |  |  |  |  | PRE Application ALOMY, percentage damage (five point scale) ([1]; applied at 250 g/ha): 4 (4=60-79%); PRE Application SETFA, percentage damage (five point scale) (Setaria faberi (SETFA) [2]; applied at 250 g/ha): 4 (4=60-79%); PRE Application ECHCG, percentage damage (five point scale) ([3]; applied at 250 g/ha): 5 (5=80-100%); PRE Application SOLNI, percentage damage (five point scale) (Solanum nigrum (SOLNI) [4]; applied at 250 g/ha): 5 (5=80-100%); PRE Application AMARE, percentage damage (five point scale) ([5]; applied at 250 g/ha): 5 (5=80-100%); PRE Application IPOHE, percentage damage (five point scale) ([6]; applied at 250 g/ha): 4 (4=60-79%); POST Application ALOMY, percentage damage (five point scale) ([7]; applied at 250 g/ha): 4 (4=60-79%); POST Application SETFA, percentage damage (five point scale) (Setaria faberi (SETFA) [8]; applied at 250 g/ha): 4 (4=60-79%); POST Application ECHCG, percentage damage (five point scale) ([9]; applied at 250 g/ha): 5 (5=80-100%); POST Application SOLNI, percentage damage (five point scale) (Solanum nigrum (SOLNI) [10]; applied at 250 g/ha): 5 (5=80-100%); POST Application AMARE, percentage damage (five point scale) ([11]; applied at 250 g/ha): 5 (5=80-100%); POST Application IPOHE, percentage damage (five point scale) ([12]; applied at 250 g/ha): 5 (5=80-100%) |
| CC#CCn1c(=O)c(C(=O)Nc2nnnn2C)nn(C)c1=O [Compound 1.092] | 4 (4=60-79%) | 5 (5=80-100%) | 5 (5=80-100%) | 5 (5=80-100%) | 5 (5=80-100%) | 5 (5=80-100%) | 4 (4=60-79%) | 5 (5=80-100%) | 5 (5=80-100%) | 5 (5=80-100%) | 5 (5=80-100%) | 5 (5=80-100%) |  |
| Cn1nnnc1NC(=O)c1nn(C)c(=O)n(CC2CC2)c1=O [Compound 1.093] | 5 (5=80-100%) | 5 (5=80-100%) | 5 (5=80-100%) | 5 (5=80-100%) | 5 (5=80-100%) | 5 (5=80-100%) | 5 (5=80-100%) | 5 (5=80-100%) | 5 (5=80-100%) | 5 (5=80-100%) | 5 (5=80-100%) | 5 (5=80-100%) |  |
| Cn1nnnc1NC(=O)c1nn(C)c(=O)n(CCC(F)(F)F)c1=O [Compound 1.094] | 5 (5=80-100%) | 5 (5=80-100%) | 5 (5=80-100%) | 5 (5=80-100%) | 5 (5=80-100%) | 5 (5=80-100%) | 5 (5=80-100%) | 5 (5=80-100%) | 5 (5=80-100%) | 5 (5=80-100%) | 5 (5=80-100%) | 5 (5=80-100%) |  |
| Cn1nnnc1NC(=O)c1nn(C)c(=O)n(CC2CCOCC2)c1=O [Compound 1.095] | 5 (5=80-100%) | 5 (5=80-100%) | 5 (5=80-100%) | 5 (5=80-100%) | 5 (5=80-100%) | 5 (5=80-100%) | 5 (5=80-100%) | 5 (5=80-100%) | 5 (5=80-100%) | 5 (5=80-100%) | 5 (5=80-100%) | 5 (5=80-100%) |  |
| Cn1nnnc1NC(=O)c1nn(C)c(=O)n(CC2CCCCC2)c1=O [Compound 1.096] | 5 (5=80-100%) | 4 (4=60-79%) | 5 (5=80-100%) | 5 (5=80-100%) | 5 (5=80-100%) | 5 (5=80-100%) | 4 (4=60-79%) | 5 (5=80-100%) | 5 (5=80-100%) | 5 (5=80-100%) | 5 (5=80-100%) | 5 (5=80-100%) |  |
| Cn1ncnc1OC(=O)c1cn(C)c(=O)n(-c2cccc(F)c2)c1=O [Compound 2.001] | 1 (1=0-19%) | 1 (1=0-19%) | 1 (1=0-19%) | 1 (1=0-19%) | 1 (1=0-19%) | 1 (1=0-19%) | 1 (1=0-19%) | 1 (1=0-19%) | 1 (1=0-19%) | 4 (4=60-79%) | 4 (4=60-79%) | 1 (1=0-19%) |  |
